Experiments:
Type in all cases: in vivo
[1] = test system: 'Floratam' St. Augustinegrass; assay: Fertilizer efficacy on St. Augustinegrass (quality, color, clipping weight); details: St. Augustinegrass sites 1 and 2; LSG at high rate (Tables 4-7)
Description: (§1) In another embodiment, the fertilizers of the various embodiments described herein were compared to industry standards for efficacy and phytotoxicity on St. Augustinegrass and bermudagrass. In another embodiment the experimental fertilizers were evaluated for their efficacy as a pre-emergent herbicide compared to an industry standard.
Efficacy of the fertilizers on the St. Augustinegrass Site was evaluated by applying treatments 1-8 to 4 replications of ‘Floratam’ St. Augustinegrass. Plot size was 1 m×2 m set up as a randomized complete block. Initially Nature Safe was applied as a granular, while ammonium sulfate and remaining products were applied as split liquid treatments sprayed out using a CO2 boom sprayer set to deliver a volume of 1 gallon/1000 ft^2. After six weeks all 10 treatments were applied to the 4 replications of ‘Floratam’. Products 3-10 were again applied as split liquid treatments using a CO2 boom sprayer. Split treatments were re-applied approximately 2 weeks later. Plots were mowed at 3.0 inches before fertilizer application. Irrigation (0.15 inch) was applied following each application. Clipping samples were taken approximately monthly for dry weight (grams) determination. […] All data was subject to statistical analysis and significant means were determined.

bermudagrass = assay: Fertilizer efficacy on bermudagrass (quality, color, clipping weight); details: LSG at high rate (Tables 8 and 9)
Description: as §1
Efficacy of the fertilizers on the Bermudagrass Site was evaluated by applying, treatments 1-8 to 4 replications of 1 m×2 m bermudagrass plots set up as a randomized complete block. Nature Safe was applied as a granular, while ammonium sulfate and remaining products were applied as split liquid treatments sprayed out using a CO2 boom sprayer set to deliver a volume of 1 gallon/1000 ft^2. Turfgrass ratings were taken to ensure turf quality/color uniformity.
After 6 weeks all 10 treatments were applied to 4 replications of bermudagrass plots. Products 3-10 were again applied as split liquid treatments sprayed out using a CO2 boom sprayer. Split treatments were re-applied approximately 2 weeks later. Plots were mowed at 0.5 inches before fertilizer application. Irrigation (0.15 inch) was applied following application. Clipping samples were taken approximately monthly for dry weight (grams) determination. […] All data was subject to statistical analysis and significant means were determined.

weeds = assay: Pre-emergent herbicide efficacy, percent weed cover on bare soil; details: compared to the untreated control (Table 13)
Description: Herbicide efficacy of the fertilizers was evaluated with Granular Lysine (LSG), Liquid Lysine (LSL), and Ronstar G by applying them to 3 replications of 1 m×1 m plots which also included an untreated control. Plots were located in an area of known weed infestation problems. Plots were prepared prior to treatment application by rototilling and applying 3 glyphosate applications to clear up pre-existing weeds and the test was initiated with 0 percent weed in all plots. On approximately monthly intervals percent weed cover ratings were taken. All data was subject to statistical analysis and significant means were determined.

SMILES: Cl.NCCCC[C@H](N)C(=O)O [LSG, L-lysine monohydrochloride]
- turfgrass quality and color (scale of 1-10) [1]: highest numerical average on many rating dates
- turfgrass quality and color (scale of 1-10) (bermudagrass): best numerical turfgrass scores on most dates
- weed ratings (percent weed cover) (weeds): not significantly different
